{"source": "ChEMBL document CHEMBL5465560", "about": "“Selectivity Literature for EUbOPEN Chemogenomic Library” (2024)", "key": {"Aurora kinase B": {"biological_target": "Aurora kinase B (Homo sapiens, UniProt Q96GD4)", "assay": "Selectivity interaction (Kinase panel (DSF assay)) EUB0001558a AURKB"}, "[1]": {"biological_target": "Serine/threonine-protein kinase WNK3 (Homo sapiens) (UniProt Q9BYP7)", "sequence (Q9BYP7 whole entry)": "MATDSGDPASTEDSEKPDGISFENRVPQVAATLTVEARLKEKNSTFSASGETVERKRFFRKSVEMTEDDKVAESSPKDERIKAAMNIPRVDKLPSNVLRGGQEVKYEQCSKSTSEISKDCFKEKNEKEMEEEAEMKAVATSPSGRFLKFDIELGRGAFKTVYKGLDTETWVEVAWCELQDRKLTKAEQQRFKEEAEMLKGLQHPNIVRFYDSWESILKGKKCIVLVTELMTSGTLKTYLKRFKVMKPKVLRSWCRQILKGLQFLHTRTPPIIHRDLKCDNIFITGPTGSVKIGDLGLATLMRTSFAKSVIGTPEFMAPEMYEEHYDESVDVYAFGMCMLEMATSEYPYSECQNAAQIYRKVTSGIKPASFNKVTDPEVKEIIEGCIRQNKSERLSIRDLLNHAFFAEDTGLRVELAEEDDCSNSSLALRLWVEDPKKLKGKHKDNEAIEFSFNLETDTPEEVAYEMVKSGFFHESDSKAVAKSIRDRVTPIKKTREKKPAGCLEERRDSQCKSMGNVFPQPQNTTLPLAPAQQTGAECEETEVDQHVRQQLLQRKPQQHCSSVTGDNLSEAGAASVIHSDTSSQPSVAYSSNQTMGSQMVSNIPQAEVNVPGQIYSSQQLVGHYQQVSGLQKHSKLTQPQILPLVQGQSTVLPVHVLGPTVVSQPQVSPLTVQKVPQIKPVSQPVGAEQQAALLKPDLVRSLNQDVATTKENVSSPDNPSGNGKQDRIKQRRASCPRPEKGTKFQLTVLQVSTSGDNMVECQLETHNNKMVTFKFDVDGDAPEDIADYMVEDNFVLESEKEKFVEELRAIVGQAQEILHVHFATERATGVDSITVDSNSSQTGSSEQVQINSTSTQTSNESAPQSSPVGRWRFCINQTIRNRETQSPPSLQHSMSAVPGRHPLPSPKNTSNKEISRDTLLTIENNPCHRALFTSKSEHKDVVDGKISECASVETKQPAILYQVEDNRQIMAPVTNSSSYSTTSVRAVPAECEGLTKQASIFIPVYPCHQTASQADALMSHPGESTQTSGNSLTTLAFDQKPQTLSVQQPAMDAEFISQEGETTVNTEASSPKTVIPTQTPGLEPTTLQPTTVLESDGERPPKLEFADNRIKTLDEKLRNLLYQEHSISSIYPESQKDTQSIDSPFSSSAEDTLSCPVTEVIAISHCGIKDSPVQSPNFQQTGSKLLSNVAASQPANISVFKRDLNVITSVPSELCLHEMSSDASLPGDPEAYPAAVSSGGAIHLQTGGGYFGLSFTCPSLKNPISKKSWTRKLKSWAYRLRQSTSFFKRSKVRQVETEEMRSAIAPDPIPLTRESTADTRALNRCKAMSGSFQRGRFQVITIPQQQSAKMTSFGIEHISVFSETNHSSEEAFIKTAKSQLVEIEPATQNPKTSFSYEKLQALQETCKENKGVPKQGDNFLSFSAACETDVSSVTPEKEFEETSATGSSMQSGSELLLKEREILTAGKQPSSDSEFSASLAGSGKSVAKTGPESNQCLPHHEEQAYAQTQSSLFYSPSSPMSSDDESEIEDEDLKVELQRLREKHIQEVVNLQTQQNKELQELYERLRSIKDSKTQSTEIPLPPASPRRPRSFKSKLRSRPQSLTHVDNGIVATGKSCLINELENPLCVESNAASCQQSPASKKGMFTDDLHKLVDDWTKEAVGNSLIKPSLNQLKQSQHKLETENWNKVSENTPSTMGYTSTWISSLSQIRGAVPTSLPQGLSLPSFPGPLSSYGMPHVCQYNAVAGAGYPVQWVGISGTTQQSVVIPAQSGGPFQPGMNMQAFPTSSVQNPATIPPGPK", "assay": "Selectivity interaction (KinomeScan (DiscoverX)) EUB0000229b WNK3", "conditions": "at 10 µM"}, "[2]": {"biological_target": "Casein kinase I isoform gamma-1 (Homo sapiens) (UniProt Q9HCP0)", "assay": "Selectivity interaction (KinomeScan (DiscoverX)) EUB0000229b CSNK1G1", "conditions": "at 10 µM"}, "[3]": {"biological_target": "T1, Tyrosine-protein kinase Mer (Homo sapiens) (UniProt Q12866)", "T1 sequence (whole entry)": "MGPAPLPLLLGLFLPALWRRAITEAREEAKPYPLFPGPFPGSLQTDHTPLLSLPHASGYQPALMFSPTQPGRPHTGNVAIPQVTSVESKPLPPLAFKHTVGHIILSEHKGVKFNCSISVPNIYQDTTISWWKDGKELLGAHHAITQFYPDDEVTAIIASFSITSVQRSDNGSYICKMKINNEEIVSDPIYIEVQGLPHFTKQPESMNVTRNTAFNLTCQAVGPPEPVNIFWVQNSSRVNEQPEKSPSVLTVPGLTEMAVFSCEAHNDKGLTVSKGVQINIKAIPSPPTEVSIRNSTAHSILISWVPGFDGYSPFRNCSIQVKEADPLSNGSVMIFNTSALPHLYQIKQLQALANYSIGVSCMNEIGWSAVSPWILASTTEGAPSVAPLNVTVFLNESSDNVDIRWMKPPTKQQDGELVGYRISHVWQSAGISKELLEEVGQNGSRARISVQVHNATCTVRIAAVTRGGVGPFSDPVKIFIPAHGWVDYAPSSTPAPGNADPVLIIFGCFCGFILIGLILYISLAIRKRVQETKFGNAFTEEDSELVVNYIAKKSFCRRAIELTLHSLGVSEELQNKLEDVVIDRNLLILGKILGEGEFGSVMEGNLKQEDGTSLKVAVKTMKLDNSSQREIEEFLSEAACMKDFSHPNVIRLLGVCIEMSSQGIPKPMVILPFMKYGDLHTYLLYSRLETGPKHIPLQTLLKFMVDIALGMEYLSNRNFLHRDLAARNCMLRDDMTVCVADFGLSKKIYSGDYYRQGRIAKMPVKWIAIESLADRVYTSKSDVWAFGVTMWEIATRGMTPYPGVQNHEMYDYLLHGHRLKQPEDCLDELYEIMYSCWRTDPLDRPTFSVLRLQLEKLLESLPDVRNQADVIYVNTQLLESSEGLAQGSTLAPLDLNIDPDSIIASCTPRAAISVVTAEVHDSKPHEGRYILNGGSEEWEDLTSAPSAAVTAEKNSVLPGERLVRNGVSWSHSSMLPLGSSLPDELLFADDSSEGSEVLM", "assay": "Selectivity interaction (KinomeScan (DiscoverX)) EUB0000655a MERTK", "conditions": "at 10 µM"}, "[4]": {"biological_target": "Glycogen synthase kinase-3 beta (Homo sapiens, UniProt P49841)", "sequence (P49841 whole entry, looked up)": "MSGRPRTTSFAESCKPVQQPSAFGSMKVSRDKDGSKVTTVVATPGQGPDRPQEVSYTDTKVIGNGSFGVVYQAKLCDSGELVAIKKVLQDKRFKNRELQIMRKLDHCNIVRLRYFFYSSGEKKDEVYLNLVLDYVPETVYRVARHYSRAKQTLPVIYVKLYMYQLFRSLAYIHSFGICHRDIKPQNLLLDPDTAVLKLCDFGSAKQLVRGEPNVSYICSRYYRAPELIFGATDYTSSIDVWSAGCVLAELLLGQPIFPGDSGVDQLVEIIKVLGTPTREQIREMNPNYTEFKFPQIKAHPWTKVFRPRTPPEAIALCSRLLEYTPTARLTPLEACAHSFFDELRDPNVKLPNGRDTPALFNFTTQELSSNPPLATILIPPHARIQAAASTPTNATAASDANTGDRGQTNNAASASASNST", "assay": "Selectivity interaction (ProQinase) EUB0000171b GSK3B"}, "[5]": {"biological_target": "Acylglycerol kinase, mitochondrial (Homo sapiens) (UniProt Q53H12)", "assay": "Selectivity interaction (Kinase panel (KiNativ target engagement assay in Jurkat cells)) EUB0001635a AGK", "type": "cell-based", "conditions": "Selectivity number of off-targets 0.0, Selectivity number of targets 233.0, Source Knowledge https://www.sciencedirect.com/science/article/pii/S2451945619300674?via%3Dihub, at 1 µM"}, "[6]": {"biological_target": "Mast/stem cell growth factor receptor Kit (Homo sapiens, UniProt P10721)", "assay": "Selectivity interaction (Kinase panel (33PanQinase(R) Activity Assay)) EUB0000877a KIT"}, "[7]": {"biological_target": "Dual specificity tyrosine-phosphorylation-regulated kinase 1A (Homo sapiens, UniProt Q13627)", "assay": "Selectivity interaction (Kinase panel (Invitrogen)) EUB0000639a DYRK1A", "conditions": "at 200 nM"}, "[8]": {"biological_target": "cAMP-dependent protein kinase catalytic subunit beta (Homo sapiens) (UniProt P22694)", "assay": "Selectivity interaction (KinomeScan (DiscoverX)) EUB0000607a PRKACB", "conditions": "at 10 µM"}, "[9]": {"biological_target": "T2, Phosphatidylinositol 4,5-bisphosphate 3-kinase catalytic subunit delta isoform (Homo sapiens) (UniProt O00329)", "T2 sequence (whole entry)": "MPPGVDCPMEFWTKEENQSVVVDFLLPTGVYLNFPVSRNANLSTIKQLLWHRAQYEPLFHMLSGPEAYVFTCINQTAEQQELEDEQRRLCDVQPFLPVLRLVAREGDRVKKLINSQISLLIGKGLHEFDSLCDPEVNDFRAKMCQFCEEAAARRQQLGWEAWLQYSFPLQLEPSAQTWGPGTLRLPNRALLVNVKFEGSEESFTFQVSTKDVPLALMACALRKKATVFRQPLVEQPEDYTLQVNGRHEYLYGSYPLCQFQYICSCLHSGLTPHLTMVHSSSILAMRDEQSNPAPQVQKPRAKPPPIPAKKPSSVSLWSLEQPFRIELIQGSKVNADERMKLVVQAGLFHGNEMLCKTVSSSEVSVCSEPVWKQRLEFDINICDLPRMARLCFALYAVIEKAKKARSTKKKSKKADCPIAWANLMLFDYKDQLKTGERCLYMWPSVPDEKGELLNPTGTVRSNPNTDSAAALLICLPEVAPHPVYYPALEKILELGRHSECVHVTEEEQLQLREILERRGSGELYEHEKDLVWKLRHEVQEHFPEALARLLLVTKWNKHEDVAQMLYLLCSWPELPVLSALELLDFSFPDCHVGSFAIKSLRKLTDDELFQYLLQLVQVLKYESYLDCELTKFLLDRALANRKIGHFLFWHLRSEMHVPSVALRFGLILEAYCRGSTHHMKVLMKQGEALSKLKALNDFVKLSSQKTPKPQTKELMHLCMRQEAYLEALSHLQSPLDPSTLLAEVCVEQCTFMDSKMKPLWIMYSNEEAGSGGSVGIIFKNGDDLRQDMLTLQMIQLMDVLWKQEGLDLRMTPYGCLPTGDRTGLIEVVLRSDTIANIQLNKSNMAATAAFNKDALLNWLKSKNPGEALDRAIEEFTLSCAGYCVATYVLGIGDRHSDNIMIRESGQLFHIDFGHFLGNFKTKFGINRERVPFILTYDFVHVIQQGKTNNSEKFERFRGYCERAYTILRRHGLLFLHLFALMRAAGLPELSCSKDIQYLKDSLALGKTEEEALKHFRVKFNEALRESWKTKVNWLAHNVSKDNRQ", "assay": "Selectivity interaction (KinomeScan (DiscoverX)) EUB0000607a PIK3CD", "conditions": "at 10 µM"}, "[10]": {"biological_target": "Ribosomal protein S6 kinase alpha-5 (Homo sapiens) (UniProt O75582)", "sequence (O75582 whole entry, looked up)": "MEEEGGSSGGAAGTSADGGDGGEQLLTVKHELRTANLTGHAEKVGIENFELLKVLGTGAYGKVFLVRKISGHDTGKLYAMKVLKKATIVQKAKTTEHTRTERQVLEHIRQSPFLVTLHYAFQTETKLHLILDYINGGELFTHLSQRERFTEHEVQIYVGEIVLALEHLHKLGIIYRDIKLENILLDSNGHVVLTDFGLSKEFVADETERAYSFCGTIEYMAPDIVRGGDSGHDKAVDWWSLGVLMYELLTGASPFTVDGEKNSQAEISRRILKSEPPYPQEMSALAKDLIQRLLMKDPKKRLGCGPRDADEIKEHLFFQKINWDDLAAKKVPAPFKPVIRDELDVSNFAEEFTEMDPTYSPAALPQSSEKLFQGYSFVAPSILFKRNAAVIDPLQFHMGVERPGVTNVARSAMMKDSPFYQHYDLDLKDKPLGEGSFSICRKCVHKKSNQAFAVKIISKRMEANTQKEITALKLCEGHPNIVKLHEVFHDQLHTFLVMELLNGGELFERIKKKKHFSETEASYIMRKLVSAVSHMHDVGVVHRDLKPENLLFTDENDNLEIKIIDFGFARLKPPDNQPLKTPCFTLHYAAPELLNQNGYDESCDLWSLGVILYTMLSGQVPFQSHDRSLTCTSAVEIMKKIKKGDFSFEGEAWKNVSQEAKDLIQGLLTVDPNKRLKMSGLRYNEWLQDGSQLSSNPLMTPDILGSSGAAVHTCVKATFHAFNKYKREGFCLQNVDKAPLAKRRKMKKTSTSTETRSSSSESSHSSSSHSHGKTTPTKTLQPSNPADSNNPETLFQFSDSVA", "assay": "Selectivity interaction (KinomeScan (DiscoverX)) EUB0000618a RPS6KA5", "conditions": "at 10 µM"}, "[11]": {"biological_target": "Myosin light chain kinase, smooth muscle (Homo sapiens, UniProt Q15746)", "sequence (Q15746 whole entry)": "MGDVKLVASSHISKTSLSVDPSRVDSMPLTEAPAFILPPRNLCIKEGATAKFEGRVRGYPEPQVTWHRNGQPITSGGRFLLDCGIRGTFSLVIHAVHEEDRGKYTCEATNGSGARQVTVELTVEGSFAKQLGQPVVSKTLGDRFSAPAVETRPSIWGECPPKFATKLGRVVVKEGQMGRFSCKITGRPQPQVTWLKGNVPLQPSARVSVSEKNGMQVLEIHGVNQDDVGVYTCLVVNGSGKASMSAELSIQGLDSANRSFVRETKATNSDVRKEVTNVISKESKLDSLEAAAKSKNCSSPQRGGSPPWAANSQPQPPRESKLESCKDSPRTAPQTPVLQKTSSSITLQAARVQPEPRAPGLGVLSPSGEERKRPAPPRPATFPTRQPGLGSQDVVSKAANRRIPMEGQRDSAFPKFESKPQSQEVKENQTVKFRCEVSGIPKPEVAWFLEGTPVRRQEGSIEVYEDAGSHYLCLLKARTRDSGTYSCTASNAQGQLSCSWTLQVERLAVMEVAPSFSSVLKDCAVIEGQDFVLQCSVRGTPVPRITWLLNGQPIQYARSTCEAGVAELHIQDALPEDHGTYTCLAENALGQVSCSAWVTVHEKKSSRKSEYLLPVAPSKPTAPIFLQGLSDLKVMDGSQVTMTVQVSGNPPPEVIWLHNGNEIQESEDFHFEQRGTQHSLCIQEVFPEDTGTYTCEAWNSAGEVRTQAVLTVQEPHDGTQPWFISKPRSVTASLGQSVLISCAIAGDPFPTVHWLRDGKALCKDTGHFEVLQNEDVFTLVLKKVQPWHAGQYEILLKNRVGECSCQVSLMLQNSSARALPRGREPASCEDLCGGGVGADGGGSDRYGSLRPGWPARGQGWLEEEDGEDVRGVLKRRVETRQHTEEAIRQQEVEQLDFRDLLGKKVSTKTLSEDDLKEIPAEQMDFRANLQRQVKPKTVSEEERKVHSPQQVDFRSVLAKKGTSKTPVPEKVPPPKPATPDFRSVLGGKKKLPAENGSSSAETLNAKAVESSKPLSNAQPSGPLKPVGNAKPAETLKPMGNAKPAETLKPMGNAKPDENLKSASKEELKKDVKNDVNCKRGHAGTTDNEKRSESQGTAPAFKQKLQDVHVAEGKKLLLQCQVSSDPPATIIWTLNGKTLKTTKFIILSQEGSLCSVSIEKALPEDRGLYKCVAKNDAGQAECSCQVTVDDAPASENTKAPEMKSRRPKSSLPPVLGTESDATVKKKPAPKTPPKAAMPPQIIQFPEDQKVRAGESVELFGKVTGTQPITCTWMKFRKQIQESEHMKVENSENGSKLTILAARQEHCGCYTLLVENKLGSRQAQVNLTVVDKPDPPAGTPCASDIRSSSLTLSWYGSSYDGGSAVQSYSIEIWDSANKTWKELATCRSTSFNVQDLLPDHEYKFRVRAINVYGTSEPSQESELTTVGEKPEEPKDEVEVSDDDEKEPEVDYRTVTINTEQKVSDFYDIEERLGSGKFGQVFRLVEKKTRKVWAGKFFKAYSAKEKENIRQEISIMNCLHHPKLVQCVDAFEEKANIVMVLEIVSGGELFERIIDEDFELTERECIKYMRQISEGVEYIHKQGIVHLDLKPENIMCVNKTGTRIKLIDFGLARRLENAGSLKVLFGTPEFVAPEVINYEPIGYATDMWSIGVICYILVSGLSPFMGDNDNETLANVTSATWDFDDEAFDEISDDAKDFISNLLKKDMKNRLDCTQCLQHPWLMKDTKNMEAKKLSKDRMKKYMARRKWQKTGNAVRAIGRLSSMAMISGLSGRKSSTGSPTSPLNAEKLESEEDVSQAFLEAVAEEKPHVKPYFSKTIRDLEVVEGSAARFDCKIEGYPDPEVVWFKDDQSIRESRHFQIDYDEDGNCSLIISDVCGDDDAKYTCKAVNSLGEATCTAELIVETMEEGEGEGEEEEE", "assay": "Selectivity interaction (KinomeScan (DiscoverX)) EUB0000618a MYLK", "conditions": "at 10 µM"}, "[12]": {"biological_target": "Casein kinase II subunit alpha (Homo sapiens, UniProt P68400)", "assay": "Selectivity interaction (Kinase screening (Upstate/Millipore)) EUB0000604a CSNK2A1"}}, "data": [{"smiles": "CC(C)(O)[C@H](F)CN1Cc2cc(NC(=O)c3cnn4cccnc34)c(N3CCOCC3)cc2C1=O", "values": [{"measurement": "dTM", "setting": "Aurora kinase B", "value": 0.5, "unit": "K"}]}, {"smiles": "COc1cc(N(C)c2ccnc3ccc(C(F)(F)F)cc23)cc(OC)c1OC", "values": [{"measurement": "% binding", "setting": "[1]", "value": 80, "unit": "%"}, {"measurement": "% binding", "setting": "[2]", "value": 76, "unit": "%"}]}, {"smiles": "CN(C)CCOc1ccc(-c2nc(-c3ccncc3)c(-c3ccc4c(c3)CC/C4=N\\O)[nH]2)cc1", "values": [{"measurement": "% of control", "setting": "[3]", "value": 87, "unit": "%"}]}, {"smiles": "C=CC(=O)Nc1cccc(C(=O)Nc2ccc(Nc3cc(-c4[nH]c(SC)nc4C)ccn3)cc2)c1", "values": [{"measurement": "% of control", "setting": "[4]; at 1 µM", "value": 91, "unit": "%"}, {"measurement": "% of control", "setting": "[4]; at 5 µM", "value": 85, "unit": "%"}]}, {"smiles": "C=CC(=O)Nc1ccc(C(=O)Nc2[nH]nc3c2CN(C(=O)N[C@H](CN(C)C)c2ccccc2)C3(C)C)cc1", "values": [{"measurement": "% of engagement", "setting": "[5]", "value": -3.9, "unit": "%"}]}, {"smiles": "CCC(=O)N1CC[C@H](Nc2ncnc3c2CN(c2cnc(OC)c(C(F)(F)F)c2)CC3)C1", "note": "[LENIOLISIB]", "values": [{"measurement": "IC50", "setting": "[6]", "value": "> 10", "unit": "µM"}]}, {"smiles": "CC[C@@H]1[C@H](F)C(=O)N[C@@H]1COc1nccc2cc(C(N)=O)c(OC)cc12", "note": "[ZIMLOVISERTIB]", "values": [{"measurement": "% of inhibition", "setting": "[7]", "value": 17.9, "unit": "%"}]}, {"smiles": "CNC(=O)Nc1ccc(-c2nc(N3CC4CCC(C3)O4)c3cnn(C4CCC5(CC4)OCCO5)c3n2)cc1", "values": [{"measurement": "% of control", "setting": "[8]", "value": 87, "unit": "%"}, {"measurement": "% of control", "setting": "[9]", "value": 5.7, "unit": "%"}]}, {"smiles": "O[C@H]1CC[C@H](Nc2ncc3nc(Nc4c(F)cc(F)cc4F)n([C@H]4CCOC4)c3n2)CC1", "values": [{"measurement": "% of control", "setting": "[10]", "value": 100, "unit": "%"}, {"measurement": "% of control", "setting": "[11]", "value": 65, "unit": "%"}]}, {"smiles": "Cc1cnc(Nc2ccc(F)cc2Cl)nc1-c1c[nH]c(C(=O)N[C@H](CO)c2cccc(Cl)c2)c1", "values": [{"measurement": "% of inhibition", "setting": "[12]", "value": 0, "unit": "%"}]}]}
